# Measurements from ChEMBL document CHEMBL1142317, “In vitro antitumor activity of the water soluble copper(I) complexes bearing the tris(hydroxymethyl)phosphine ligand” (J Med Chem, 2008).
# Assays:
# Assay type in all cases: functional, cell-based
# [1] = test system: Daudi; assay: Cytotoxicity against human Daudi cells after 48 hrs by MTT assay
# [2] = test system: A-375; assay: Cytotoxicity against human A375 cells after 48 hrs by MTT assay; conditions: A-375, 48 h
# [3] = test system: A549; assay: Cytotoxicity against human A549 cells after 48 hrs by MTT assay; conditions: A549, 48 h
# [4] = test system: HCT-15; assay: Cytotoxicity against human HCT15 cells after 48 hrs by MTT assay; conditions: HCT-15, 48 h
# [5] = test system: HL-60; assay: Cytotoxicity against human HL60 cells after 48 hrs by MTT assay; conditions: HL-60, 48 h
# [6] = test system: Caco-2; assay: Cytotoxicity against human CaCo2 cells after 48 hrs by MTT assay; conditions: Caco-2, 48 h
# [7] = test system: MCF7; assay: Cytotoxicity against human MCF7 cells after 48 hrs by MTT assay; conditions: MCF7, 48 h
# [8] = test system: HepG2; assay: Cytotoxicity against human HepG2 cells after 48 hrs by MTT assay; conditions: HepG2, 48 h
# [9] = test system: HeLa; assay: Cytotoxicity against human HeLa cells after 48 hrs by MTT assay
# [10] = test system: LoVo; assay: Cytotoxicity against human LoVo cells after 48 hrs by MTT assay
# [11] = test system: LoVo; assay: Cytotoxicity against human multidrug resistant LoVo cells after 48 hrs by MTT assay
SMILES,IC50 [1] [µM],IC50 [2] [µM],IC50 [3] [µM],IC50 [4] [µM],IC50 [5] [µM],IC50 [6] [µM],IC50 [7] [µM],IC50 [8] [µM],IC50 [9] [µM],IC50 [10] [µM],IC50 [11] [µM]
OCP(CO)CCP(CO)CO,> 100,73.2,> 100,91.7,83.7,84.1,> 100,71.7,> 100,,
COc1cccc2c1C(=O)c1c(O)c3c(c(O)c1C2=O)C[C@@](O)(C(=O)CO)C[C@@H]3O[C@H]1C[C@H](N)[C@H](O)[C@H](C)O1 [DOXORUBICIN],,,,,,,,,,1.46,44.9
OCP(CO)CO [TRIS(HYDROXYMETHYL)PHOSPHINE],> 100,88.7,72.9,> 100,68.6,> 100,64.2,98.7,> 100,,
